{"source": "patent US20210212937A1", "about": "“GLUCONO DELTA-LACTONE FOR TREATMENT OF VAGINAL FUNGAL INFECTIONS” (Gedea Biotech AB, priority 2016, published 2021)", "key": {"C. glabrata [1]": {"test_system": "C. glabrata", "test": "Cell survival of mature biofilm, serial dilution plating on YPD", "format": "cell-based, Candida glabrata", "experimental": "(§1) The plated cells were incubated for 24 h at 37° C. and visually analyzed. The cells from the mature biofilm treated with water were used as a control. […] At the concentrations of 0.2 and 0.5 g/ml after 5 h of incubation the cell viability was decreased by about 100 times for both C. albicans and C. glabrata."}, "Candida sp.": {"test_system": "Candida sp.", "test": "Viability on medium with calcofluor white versus osmotic stabilizer (cell wall damage)", "format": "cell-based", "details": "compared to medium with 0.5M sucrose and to untreated cells"}, "C. albicans [2]": {"test_system": "C. albicans", "test": "Cell survival of mature biofilm, serial dilution plating on YPD", "format": "cell-based, Candida albicans", "details": "0.5 g/ml, 5 h, 37° C.", "experimental": "as §1"}, "Candida albicans [3]": {"test_system": "Candida albicans", "test": "Biofilm formation of Candida albicans at different pH (crystal violet)", "format": "cell-based", "experimental": "The biofilm was measured after 24 h and the staining was performed with crystal violet.\n(§2) Yeast strains were grown at 37° C. in complete medium YPD (0.5% (weight/volume) yeast extract, 1% (weight/volume) peptone, 2% (weight/volume) glucose) or minimal medium consisting of YNB (yeast nitrogen base without amino acids and ammonium sulphate, FORMEDIUM™, CYN0505) supplemented with 0.5% (weight/volume) ammonium sulphate, 0.2% (weight/volume) glucose and 100 mM L-proline. If needed 2% (weight/volume) agar was used to solidify media. The liquid minimal medium (YNB (yeast nitrogen base without amino acids and ammonium sulphate, FORMEDIUM™, CYN0505) supplemented with 0.5% ammonium sulphate, 0.2% (weight/volume) glucose and 100 mM L-proline) was used for biofilm assay (biofilm medium).\nBiofilm was measured in liquid culture as described [K. Scherz et al., G3 (Bethesda), 2014, 4, 1671-1680. I. Serrano-Fujarte et al. Biomed Res Int. 2015; 2015:783639] with some modifications. […] At defined time points crystal violet (HT901-8FOZ; Sigma Aldrich) was added to the media at the final concentration 0.05% In addition, total biomass was measured. […] Total biomass and crystal violet biofilm staining measurements were performed at OD560 with FLUOstar OPTIMA plate reader, BMG LABTECH. […]"}, "C. albicans [4]": {"test_system": "C. albicans", "test": "Microfluidics study of biofilm development (cell morphology)", "format": "cell-based, Candida albicans", "details": "5 h, 1 h hydrolysate of GDA pellet diluted 50 times", "experimental": "To monitor the C. albicans cell morphology we studied the biofilm development also using microscopy and microfluidics. After the yeast cells were inoculated, hyphae started to form within first hour of incubation in the biofilm medium (YNB supplemented with 100 mM proline and 0.2% glucose, pH7.0). […] A sample was taken after 1 h and diluted 50 times with biofilm medium and added to C. albicans."}, "C. albicans [5]": {"test_system": "C. albicans", "test": "Viability of mature biofilm, XTT staining", "format": "cell-based, Candida albicans", "experimental": "(§3) XXT is a colorimetric assay for quantification of cellular viability, and cytotoxicity. The assay is based on the cleavage of the tetrazolium salt XTT, a conversion that only occurs in viable cells. […] Then the cells were washed 2 times with PBS, after which the XTT reaction mixture was added. After 30 min the optical density measured at 485 nm."}, "Candida glabrata": {"test_system": "Candida glabrata", "test": "Biofilm formation in a model of in vivo conditions using GDA pellet", "format": "cell-based", "details": "C. glabrata; GDA released from pellet (2.5 g) in pH 3.71 buffer, samples 1-24 h, diluted 50 times", "experimental": "as §2\n(§4) Biofilm was measured in liquid culture as described [K. Scherz et al., G3 (Bethesda), 2014, 4, 1671-1680. I. Serrano-Fujarte et al. Biomed Res Int. 2015; 2015:783639] with some modifications. Prior the biofilm assay, yeast cultures were grown in liquid YPD medium for 24 hours until stationary phase cells were then pelleted by centrifugation (1699×g), washed with sterile water and the cells were further inoculated into test biofilm medium (YNB (yeast nitrogen base without amino acids and ammonium sulphate) supplemented with 0.5% ammonium sulphate, 0.2% glucose and 100 mM L-proline pH7.0) at final concentration of 0.2 OD600/ml and incubated in 96-well flat-bottom polystyrene microtiter plates (Sigma Aldrich, Corning® Costar® culture plates, CLS3596-50EA) for 72 hours at 37° C. thermostat. At defined time points crystal violet (HT901-8FOZ; Sigma Aldrich) was added to the media at the final concentration 0.05% In addition, total biomass was measured. […] Total biomass and crystal violet biofilm staining measurements were performed at OD560 with FLUOstar OPTIMA plate reader, BMG LABTECH. […]\n(§5) Samples (4 mL) were taken at fixed time points (1, 2, 3, 4, 5, 6 and 24 h) and new buffer solution (4 mL) was added. The samples were diluted 50 times with biofilm medium (vide supra) and the amount of biofilm formation was measured after 24 h as described above. […]"}, "Candida albicans [6]": {"test_system": "Candida albicans", "test": "Biofilm formation in a model of in vivo conditions using GDA pellet", "format": "cell-based", "details": "C. albicans", "experimental": "as §2, §4, §5"}, "C. glabrata [7]": {"test_system": "C. glabrata", "test": "Viability of mature biofilm, XTT staining", "format": "cell-based, Candida glabrata", "details": "24 h of incubation", "experimental": "as §3"}, "Candida": {"test_system": "Candida", "test": "Biofilm assay of hydroxylated carboxylic acids", "format": "cell-based", "from_the_text": "Given the importance of formation of biofilm in vulvovaginal Candida infections, a biofilm assay was deemed appropriate to evaluate the effect of hydroxylated carboxylic acid in targeting vulvovaginal Candida infections. […] As biofilm formation is dependent on both pH and the occurrence of alternative carbohydrate sources, it was not surprising to learn that lactic acid provides some effect on the formation of biofilm. Further, also some other hydroxylated C2-C5 carboxylic acids provided similar effects. Their effect is deemed to be related to their acidifying effect, as the stronger acid provided somewhat stronger effects.\nWhereas the effect of other hydroxylated carboxylic acids seemingly only is due to their acidity (lowering the pH hampers the formation of biofilm), the effect of polyhydroxylated C6 carboxylic acids, e.g. gluconic acid, on formation of biofilm is pronounced already at pH<7. Thus, it seems that the effect of polyhydroxylated C6 carboxylic acid, e.g. gluconic acid, on formation of biofilm not merely is related to its acidity, but the compound itself, or more precisely the related δ-lactone thereof, also provides an effect."}}}
{"smiles": "O=C1O[C@H](CO)[C@@H](O)[C@H](O)[C@H]1O", "note": "[GDA, glucono δ-lactone]", "values": [{"measurement": "Decrease of cell viability", "setting": "C. glabrata [1]; C. glabrata mature biofilm, 0.5 g/ml, 5 h, 37° C.", "result": "about 100 times"}, {"measurement": "Sensitivity of mature biofilm compared with C. albicans", "setting": "C. glabrata [1]; C. glabrata, plating after incubation with GDA", "result": "more sensitive"}, {"measurement": "Viability on medium with calcofluor white", "setting": "Candida sp.", "result": "lower viability"}, {"measurement": "Decrease of cell viability", "setting": "C. albicans [2]", "result": "about 100 times"}, {"measurement": "pH up to which strong effect on biofilm formation is shown", "setting": "Candida albicans [3]; C. albicans, 24 h", "result": "at least 6"}, {"measurement": "Effect on biofilm formation of C. albicans", "setting": "Candida albicans [3]; minimal media pH 2.6-6.6, 24 h", "result": "strong effects"}, {"measurement": "Cell morphology", "setting": "C. albicans [4]", "result": "most treated cells were planctonic"}, {"measurement": "Viability of mature biofilm (XTT, OD 485 nm)", "setting": "C. albicans [5]; 24 h of incubation", "result": "less pronounced"}, {"measurement": "Viability of mature biofilm (XTT, OD 485 nm)", "setting": "C. albicans [5]; 48 h", "result": "clearly seen"}, {"measurement": "Amount of biofilm formation", "setting": "Candida glabrata", "result": "less pronounced"}, {"measurement": "Amount of biofilm formation", "setting": "Candida albicans [6]; GDA released from pellet (2.5 g) in pH 3.71 buffer, samples 1-24 h, diluted 50 times", "result": "significantly reduces"}, {"measurement": "Duration of preventive effect of pellet", "setting": "Candida albicans [6]; pellet 2.5 g in pH 3.71 buffer, 37° C.", "result": "≥ 24", "unit": "h"}, {"measurement": "Viability of mature biofilm (XTT, OD 485 nm)", "setting": "C. glabrata [7]", "result": "strong decrease in viability"}]}
{"smiles": "O=C(O)[C@H](O)[C@@H](O)[C@H](O)[C@H](O)CO", "note": "[gluconic acid]", "values": [{"measurement": "pH at which effect on formation of biofilm is already pronounced", "setting": "Candida", "result": "< 7"}, {"measurement": "Decrease of formation of biofilm", "setting": "Candida; compared to glyceric acid, xylonic acid and citric acid", "result": "superior effects"}]}
{"smiles": "CC(O)C(=O)O", "note": "(stereo not shown) [lactic acid]", "values": [{"measurement": "Activity in biofilm assay", "setting": "Candida; targeting vulvovaginal Candida infections", "result": "moderately active"}]}
